Experimental data published in US20110053907A1, “SUBSTITUTED PYRIMIDINES AND TRIAZINES AND THEIR USE IN CANCER THERAPY” (Auckland UniServices Limited, priority 2008, published 2011).

Tests used:
[1] = system: PI3K isoforms; conditions: literature; cited from earlier work
[2] = target: p110α/p85 (Homo sapiens, UniProt P42336); test: Reversible inhibition of isolated enzyme, lipid kinase assay; type: biochemical; conditions: recombinant enzyme, 100 μM ATP, 1 hr, average of two experiments
Method: Compounds were evaluated for their ability to inhibit Class I PI 3-kinase enzymes p110δ/p85, p110α/p85, and p110β/p85. Reaction mixtures comprising 0.1 μg of a recombinant enzyme, 10 μg of L-α-phosphatidylinositol, and 2× Lipid Kinase Buffer (40 mM Tris-HCl, pH 7.4, 200 mM NaCl, 1 mM EDTA), which contains either DMSO only as a control or the test compound in DMSO (the final DMSO concentration is 1%), were activated by the addition of an ATP mix (5 mM MgCl2, 100 μM ATP, and 0.1 μL [γ^33P]ATP). Reactions were incubated at room temperature for 1 hr, and then stopped by the addition of 1M HCl. The lipids were then extracted using a two step procedure. Firstly, 200 μL of chloroform/methanol (1:1) was added, the biphasic reactions mixed and centrifuged briefly, and the inorganic phase was removed and discarded. Following this, 80 μL of methanol:HCl (1:1) was added and the same procedure followed. The organic phase (70 μL) was then transferred to a clean 1.6 mL tube and the reactions were dried using a Speedvac, with no heating, for 30 min. The reactions were spotted onto TLC plates (Merck Ltd) and developed for 1 hr in propanol-1:2 M acetic acid (13:7). The TLC plates were then dried at room temperature and quantified using a phosphorimager (StormImager, Amersham). Nine compound concentrations were used for each test compound to determine its IC50 value. Each experiment was performed twice and the average IC50 value is used herein.

Sequence of p110α/p85 (P42336 whole entry): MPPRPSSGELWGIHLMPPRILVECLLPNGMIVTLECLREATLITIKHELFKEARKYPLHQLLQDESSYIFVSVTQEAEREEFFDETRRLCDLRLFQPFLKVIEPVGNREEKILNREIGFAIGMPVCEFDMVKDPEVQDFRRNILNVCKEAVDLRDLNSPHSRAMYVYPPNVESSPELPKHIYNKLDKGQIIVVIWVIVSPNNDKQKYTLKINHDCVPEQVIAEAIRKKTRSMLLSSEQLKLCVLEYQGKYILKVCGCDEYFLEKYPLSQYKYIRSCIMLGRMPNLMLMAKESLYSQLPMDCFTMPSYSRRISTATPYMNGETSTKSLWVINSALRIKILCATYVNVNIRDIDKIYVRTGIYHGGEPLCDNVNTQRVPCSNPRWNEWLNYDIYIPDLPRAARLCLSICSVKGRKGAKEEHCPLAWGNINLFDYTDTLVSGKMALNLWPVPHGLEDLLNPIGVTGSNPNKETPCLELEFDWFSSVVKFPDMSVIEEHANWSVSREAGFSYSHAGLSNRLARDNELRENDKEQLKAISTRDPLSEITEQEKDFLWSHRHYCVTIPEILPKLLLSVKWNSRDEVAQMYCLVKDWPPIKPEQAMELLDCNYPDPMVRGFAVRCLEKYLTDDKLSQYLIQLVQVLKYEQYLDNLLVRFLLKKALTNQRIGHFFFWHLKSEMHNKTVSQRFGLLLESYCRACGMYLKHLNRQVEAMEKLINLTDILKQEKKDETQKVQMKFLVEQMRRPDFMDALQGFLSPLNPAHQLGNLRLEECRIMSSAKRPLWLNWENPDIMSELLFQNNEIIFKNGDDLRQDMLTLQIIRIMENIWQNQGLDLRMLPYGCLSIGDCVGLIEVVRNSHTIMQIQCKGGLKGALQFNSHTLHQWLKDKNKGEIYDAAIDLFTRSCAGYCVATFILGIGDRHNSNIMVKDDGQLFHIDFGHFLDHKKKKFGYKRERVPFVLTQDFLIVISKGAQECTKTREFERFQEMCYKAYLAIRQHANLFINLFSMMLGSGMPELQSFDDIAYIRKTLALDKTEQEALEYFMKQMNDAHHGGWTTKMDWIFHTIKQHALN
Sequence of p110α/p85 (P27986 whole entry partner): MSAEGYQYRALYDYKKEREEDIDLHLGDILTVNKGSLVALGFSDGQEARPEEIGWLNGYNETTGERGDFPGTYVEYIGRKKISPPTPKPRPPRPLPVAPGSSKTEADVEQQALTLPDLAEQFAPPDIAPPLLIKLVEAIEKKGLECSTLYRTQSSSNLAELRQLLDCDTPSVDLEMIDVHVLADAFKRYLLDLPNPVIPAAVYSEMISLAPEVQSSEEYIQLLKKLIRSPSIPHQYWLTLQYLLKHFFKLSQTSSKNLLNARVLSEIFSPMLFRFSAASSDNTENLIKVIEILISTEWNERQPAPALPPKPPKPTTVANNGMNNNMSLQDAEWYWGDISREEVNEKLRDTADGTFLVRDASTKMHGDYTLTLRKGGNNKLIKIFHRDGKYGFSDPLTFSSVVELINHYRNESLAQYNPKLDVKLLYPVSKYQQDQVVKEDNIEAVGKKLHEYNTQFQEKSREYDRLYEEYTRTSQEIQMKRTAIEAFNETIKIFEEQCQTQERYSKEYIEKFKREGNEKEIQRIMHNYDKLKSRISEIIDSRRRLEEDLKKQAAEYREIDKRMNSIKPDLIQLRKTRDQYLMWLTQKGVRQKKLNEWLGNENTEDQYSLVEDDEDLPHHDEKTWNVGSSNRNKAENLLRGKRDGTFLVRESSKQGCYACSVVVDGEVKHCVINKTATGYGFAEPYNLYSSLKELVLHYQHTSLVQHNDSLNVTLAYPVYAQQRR

| Structure (SMILES) | PI3K isoform selectivity [1] | IC50 [2] [nM] | melting point [°C] | mode of PI3K inhibition (reversible / irreversible) [1] |
| --- | --- | --- | --- | --- |
| O=C1NC(=O)/C(=C\c2ccc3nccnc3c2)S1 [AS605240] | γ-selective |  |  |  |
| COc1cccc2c1nc(C(F)F)n2-c1nc(N2CCOCC2)nc(N(C)C2CCN(S(=O)(=O)CCl)CC2)n1 [Example 21, N-{1-[(chloromethyl)sulfonyl]-4-piperidinyl}-4-[2-(difluoromethyl)-4-methoxy-1H-benzimidazol-1-yl]-N-methyl-6-(4-morpholinyl)-1,3,5-triazin-2-amine] |  | < 100 | 212 to 215 |  |
| COc1cccc2c1nc(C(F)F)n2-c1nc(N2CCOCC2)nc(N2CCC(NC(=O)CCl)CC2)n1 [Example 22, 2-chloro-N-{1-[4-[2-(difluoromethyl)-4-methoxy-1H-benzimidazol-1-yl]-6-(4-morpholinyl)-1,3,5-triazin-2-yl]-4-piperidinyl}acetamide] |  | < 100 | 252 to 254 |  |
| COc1cccc2c1nc(C(F)F)n2-c1nc(N2CCOCC2)nc(N2CCC(N(C)C(=O)CCl)CC2)n1 [Example 23, 2-chloro-N-{1-[4-[2-(difluoromethyl)-4-methoxy-1H-benzimidazol-1-yl]-6-(4-morpholinyl)-1,3,5-triazin-2-yl]-4-piperidinyl}-N-methylacetamide] |  | < 100 | 206 to 208 |  |
| COc1cccc2c1nc(C(F)F)n2-c1nc(N2CCOCC2)nc(N2CC[C@@H](NC(=O)CCl)C2)n1 [Example 25, 2-chloro-N-{(3R)-1-[4-[2-(difluoromethyl)-4-methoxy-1H-benzimidazol-1-yl]-6-(4-morpholinyl)-1,3,5-triazin-2-yl]pyrrolidinyl}acetamide] |  | < 100 | 270 to 275 |  |
| COc1cccc2c1nc(C(F)F)n2-c1nc(N2CCOCC2)nc(N2CC[C@@H](N(C)C(=O)CCl)C2)n1 [Example 27, 2-chloro-N-{(3R)-1-[4-[2-(difluoromethyl)-4-methoxy-1H-benzimidazol-1-yl]-6-(4-morpholinyl)-1,3,5-triazin-2-yl]pyrrolidinyl}-N-methylacetamide] |  | < 100 | 231 to 233 |  |
| COc1cccc2c1nc(C(F)F)n2-c1nc(N2CCOCC2)nc(N2CC[C@H](N(C)C(=O)CCl)C2)n1 [Example 28, 2-chloro-N-{(3S)-1-[4-[2-(difluoromethyl)-4-methoxy-1H-benzimidazol-1-yl]-6-(4-morpholinyl)-1,3,5-triazin-2-yl]pyrrolidinyl}-N-methylacetamide] |  | < 100 | 230 to 232 |  |
| COc1cccc2c1nc(C(F)F)n2-c1nc(N[C@@H]2CCN(C(=O)CCl)C2)nc(N2CCOCC2)n1 [Example 29, N-[(3R)-1-(chloroacetyl)pyrrolidinyl]-4-[2-(difluoromethyl)-4-methoxy-1H-benzimidazol-1-yl]-6-(4-morpholinyl)-1,3,5-triazin-2-amine] |  | < 100 | 208 to 210 |  |
| COc1cccc2c1nc(C(F)F)n2-c1nc(N[C@H]2CCN(C(=O)CCl)C2)nc(N2CCOCC2)n1 [Example 30, N-[(3S)-1-(chloroacetyl)pyrrolidinyl]-4-[2-(difluoromethyl)-4-methoxy-1H-benzimidazol-1-yl]-6-(4-morpholinyl)-1,3,5-triazin-2-amine] |  | < 100 | 208 to 211 |  |
| COc1cccc2c1nc(C(F)F)n2-c1nc(N2CCOCC2)nc(N(C)[C@@H]2CCN(C(=O)CCl)C2)n1 [Example 31, N-[(3R)-1-(chloroacetyl)pyrrolidinyl]-4-[2-(difluoromethyl)-4-methoxy-1H-benzimidazol-1-yl]-N-methyl-6-(4-morpholinyl)-1,3,5-triazin-2-amine] |  | < 100 | 219 to 221 |  |
| COc1cccc2c1nc(C(F)F)n2-c1nc(N2CCOCC2)nc(N(C)[C@H]2CCN(C(=O)CCl)C2)n1 [Example 32, N-[(3S)-1-(chloroacetyl)pyrrolidinyl]-4-[2-(difluoromethyl)-4-methoxy-1H-benzimidazol-1-yl]-N-methyl-6-(4-morpholinyl)-1,3,5-triazin-2-amine] |  | < 100 | 219 to 221 |  |
| COc1cccc2c1nc(C(F)F)n2-c1nc(N2CCOCC2)nc(N2CCC[C@@H](NC(=O)CCl)C2)n1 [Example 33] |  | < 100 | 231 to 233 |  |
| COc1cccc2c1nc(C(F)F)n2-c1nc(N2CCOCC2)nc(N2CCC[C@H](NC(=O)CCl)C2)n1 [Example 34, 2-chloro-N-{(3S)-1-[4-[2-(difluoromethyl)-4-methoxy-1H-benzimidazol-1-yl]-6-(4-morpholinyl)-1,3,5-triazin-2-yl]piperidinyl}acetamide] |  | < 100 | 227 to 229 |  |
| COc1cccc2c1nc(C(F)F)n2-c1nc(N2CCOCC2)nc(N2CCC[C@@H](N(C)C(=O)CCl)C2)n1 [Example 35, 2-chloro-N-{(3R)-1-[4-[2-(difluoromethyl)-4-methoxy-1H-benzimidazol-1-yl]-6-(4-morpholinyl)-1,3,5-triazin-2-yl]piperidinyl}-N-methylacetamide] |  | < 100 | 201 to 203 |  |
| COc1cccc2c1nc(C(F)F)n2-c1nc(N[C@@H]2CCCN(C(=O)CCl)C2)nc(N2CCOCC2)n1 [Example 37] |  | < 100 | 190 to 192 |  |
| COc1cccc2c1nc(C(F)F)n2-c1nc(N2CCOCC2)nc(N2CC(NC(=O)CCl)C2)n1 [Example 41, 2-chloro-N-{1-[4-[2-(difluoromethyl)-4-methoxy-1H-benzimidazol-1-yl]-6-(4-morpholinyl)-1,3,5-triazin-2-yl]-3-azetidinyl}acetamide] |  | < 100 | 272 to 275 |  |
| COc1cccc2c1nc(C(F)F)n2-c1nc(N2CCOCC2)nc(N2CC(N(C)C(=O)CCl)C2)n1 [Example 42, 2-chloro-N-{1-[4-[2-(difluoromethyl)-4-methoxy-1H-benzimidazol-1-yl]-6-(4-morpholinyl)-1,3,5-triazin-2-yl]-3-azetidinyl}-N-methylacetamide] |  | < 100 | 233 to 236 |  |
| COc1cccc2c1nc(C(F)F)n2-c1nc(NC2CN(C(=O)CCl)C2)nc(N2CCOCC2)n1 [Example 43, N-[1-(chloroacetyl)-3-azetidinyl]-4-[2-(difluoromethyl)-4-methoxy-1H-benzimidazol-1-yl]-6-(4-morpholinyl)-1,3,5-triazin-2-amine] |  | < 100 | 219 to 221 |  |
| COc1cccc2c1nc(C(F)F)n2-c1nc(N2CCOCC2)nc(N(C)C2CN(C(=O)CCl)C2)n1 [Example 44, N-[1-(chloroacetyl)-3-azetidinyl]-4-[2-(difluoromethyl)-4-methoxy-1H-benzimidazol-1-yl]-N-methyl-6-(4-morpholinyl)-1,3,5-triazin-2-amine] |  | < 100 | 220 to 222 |  |
| COc1cccc2c1nc(C(F)F)n2-c1nc(OC2CCN(C(=O)CCl)CC2)nc(N2CCOCC2)n1 [Example 45, 1-[4-{[1-(chloroacetyl)-4-piperidinyl]oxy}-6-(4-morpholinyl)-1,3,5-triazin-2-yl]-2-(difluoromethyl)-4-methoxy-1H-benzimidazole] |  | < 100 | 170 to 172 |  |
| COc1cccc2c1nc(C(F)F)n2-c1nc(N2CCOCC2)c2cnn(C3CCN(S(=O)(=O)CCl)CC3)c2n1 [Example 48, 1-{1-[(chloromethyl)sulfonyl]-4-piperidinyl}-6-[2-(difluoromethyl)-4-methoxy-1H-benzimidazol-1-yl]-4-(4-morpholinyl)-1H-pyrazolo[3,4-d]pyrimidine] |  | < 100 | 250 to 253 |  |
| Cc1ccccc1-n1c(Cn2cnc3c(N)ncnc32)nc2cccc(C)c2c1=O [IC87114] | δ-selective |  |  |  |
| Oc1cccc(-c2nc(N3CCOCC3)c3oc4ncccc4c3n2)c1 [PI103] | slightly α-selective |  |  |  |
| C=CCN(/C=C1/C(=O)O[C@H](COC)[C@@]2(C)C1=C(O)C(=O)C1=C2[C@H](OC(C)=O)C[C@]2(C)C(=O)CC[C@@H]12)CC=C [PX-866] | not selective for individual PI3K isoforms |  |  | irreversible activity |
| Cc1cc(C(C)Nc2ccccc2)c2nc(N3CCOCC3)cc(=O)n2c1 (centres unmarked) [TGX221] | β-selective |  |  |  |
| FC(F)c1nc2ccccc2n1-c1nc(N2CCOCC2)nc(N2CCOCC2)n1 [ZSTK474] | non-selective |  |  |  |
